By IC50 is commonly meant the point on the concentration scale where inhibition reaches its midpoint. In general, inhibition refers to the relative decrease from the control value, in per cent. Broadly, the bioavailability is the share of a dose that reaches the circulation, judged against a reference dose that is usually intravenous. A lower bioavailability goes with poor availability. What is called Cmax is the peak of the concentration-time curve. The clearance is the volume of plasma or blood freed of the substance per unit of time. Low readings indicate a low capacity for elimination, high ones a high capacity for elimination. The term AUC(0-t) denotes the area under the concentration-time curve up to a stated or last time point. Read a low AUC(0-t) as low exposure. The Tmax is the time from dosing to the highest level. In general, Kp refers to tissue or fluid exposure divided by exposure in the circulation. What is called half-life is the time in which the quantity being followed falls by half. Read a high half-life as slow loss.

The test system of data set [1] is Mus musculus. Kind of data set: Anti-inflammatory activity in C57BL/6 mouse model of cigarette smoke induced chronic obstructive pulmonary disease assessed as neutrophil level in bronchoalveolar lavage at 5 mg/kg, po BID administered 1 hr prior to both smoke exposure for 7 days by Leishman's staining based assay. It is filed as functional.
Data set [2] concerns Mus musculus. Nature of the data set: Anti-inflammatory activity in C57BL/6 mouse model of cigarette smoke induced chronic obstructive pulmonary disease assessed as macrophages level in bronchoalveolar lavage at 5 mg/kg, po BID administered 1 hr prior to both smoke exposure for 7 days by Leishman's staining based assay. Format: functional.
The subject of data set [3] is Mus musculus. Nature of the data set: Anti-inflammatory activity in C57BL/6 mouse model of cigarette smoke induced chronic obstructive pulmonary disease assessed as total leukocyte count in bronchoalveolar lavage at 5 mg/kg, po BID administered 1 hr prior to both smoke exposure for 7 days by hemocytometry. Format: functional.
For data set [4], the target named is Alcohol dehydrogenase class-3 (Homo sapiens, UniProt P11766). Kind of data set: Inhibition of human GSNOR assessed as reduction in NADH consumption after 3 mins by spectrophotometric analysis.
Sequence of Alcohol dehydrogenase class-3 (P11766 whole entry): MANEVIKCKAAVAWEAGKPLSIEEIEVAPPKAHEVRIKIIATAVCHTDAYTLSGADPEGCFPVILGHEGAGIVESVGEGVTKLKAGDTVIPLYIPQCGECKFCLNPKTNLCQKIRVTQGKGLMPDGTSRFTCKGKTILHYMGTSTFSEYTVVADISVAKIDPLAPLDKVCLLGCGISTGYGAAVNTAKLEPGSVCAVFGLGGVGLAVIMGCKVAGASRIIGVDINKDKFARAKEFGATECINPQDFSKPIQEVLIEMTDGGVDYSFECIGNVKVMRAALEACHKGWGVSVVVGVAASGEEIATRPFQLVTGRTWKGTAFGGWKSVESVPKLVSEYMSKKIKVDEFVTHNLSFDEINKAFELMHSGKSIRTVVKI
In data set [5] the target is CYP2C9 (Homo sapiens, UniProt P11712). Kind of data set: Inhibition of CYP2C9 in human liver microsomes at 10 uM after 20 mins in presence of NADPH by LC/MS/MS analysis relative to control. It is filed as ADME. For orientation: Microsomes from liver hold many membrane-bound enzymes, among them those of drug oxidation.
Sequence of CYP2C9 (P11712 whole entry): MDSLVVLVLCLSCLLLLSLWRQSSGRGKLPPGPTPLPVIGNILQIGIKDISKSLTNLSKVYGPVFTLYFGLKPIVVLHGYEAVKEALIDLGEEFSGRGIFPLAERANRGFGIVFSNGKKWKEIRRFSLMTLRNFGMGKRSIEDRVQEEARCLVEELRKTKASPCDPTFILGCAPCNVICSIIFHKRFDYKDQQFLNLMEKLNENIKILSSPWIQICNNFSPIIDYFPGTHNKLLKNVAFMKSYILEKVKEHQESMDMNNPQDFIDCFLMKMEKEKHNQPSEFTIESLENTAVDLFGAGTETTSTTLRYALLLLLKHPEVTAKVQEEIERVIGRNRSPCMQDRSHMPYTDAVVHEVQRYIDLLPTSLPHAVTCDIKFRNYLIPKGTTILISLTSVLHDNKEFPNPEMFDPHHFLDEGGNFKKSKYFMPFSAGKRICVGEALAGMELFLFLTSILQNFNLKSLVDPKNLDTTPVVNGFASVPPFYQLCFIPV
Data set [6] has as its target Cytochrome P450 3A4 (Homo sapiens, UniProt P08684). Nature of the data set: (§1) Inhibition of CYP3A4 in human liver microsomes at 10 uM after 20 mins in presence of NADPH by LC/MS/MS analysis relative to control. It is filed as ADME. Conditions: microsomes, 20 min, 10 µM; call rule not given here.
The target of data set [7] is CYP2C19 (Homo sapiens, UniProt P33261). Nature of the data set: Inhibition of CYP2C19 in human liver microsomes at 10 uM after 40 mins in presence of NADPH by LC/MS/MS analysis relative to control. Format: ADME.
Sequence of CYP2C19 (P33261 whole entry): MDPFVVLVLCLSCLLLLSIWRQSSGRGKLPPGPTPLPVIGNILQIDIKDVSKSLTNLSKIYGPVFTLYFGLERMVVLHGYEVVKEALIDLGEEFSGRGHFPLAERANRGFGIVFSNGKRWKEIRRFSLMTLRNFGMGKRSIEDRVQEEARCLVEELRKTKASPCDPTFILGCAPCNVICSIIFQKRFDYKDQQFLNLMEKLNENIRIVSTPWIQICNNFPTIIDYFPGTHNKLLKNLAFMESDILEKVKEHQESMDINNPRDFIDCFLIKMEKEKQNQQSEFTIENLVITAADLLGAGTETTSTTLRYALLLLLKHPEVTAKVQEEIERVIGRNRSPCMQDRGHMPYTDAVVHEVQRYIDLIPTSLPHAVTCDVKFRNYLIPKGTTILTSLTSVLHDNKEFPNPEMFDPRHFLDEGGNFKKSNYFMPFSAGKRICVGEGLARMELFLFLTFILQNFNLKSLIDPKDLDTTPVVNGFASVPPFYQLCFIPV
For data set [8], the target named is T1, Cytochrome P450 1A2 (Homo sapiens, UniProt P05177).
T1 sequence (P05177 whole entry): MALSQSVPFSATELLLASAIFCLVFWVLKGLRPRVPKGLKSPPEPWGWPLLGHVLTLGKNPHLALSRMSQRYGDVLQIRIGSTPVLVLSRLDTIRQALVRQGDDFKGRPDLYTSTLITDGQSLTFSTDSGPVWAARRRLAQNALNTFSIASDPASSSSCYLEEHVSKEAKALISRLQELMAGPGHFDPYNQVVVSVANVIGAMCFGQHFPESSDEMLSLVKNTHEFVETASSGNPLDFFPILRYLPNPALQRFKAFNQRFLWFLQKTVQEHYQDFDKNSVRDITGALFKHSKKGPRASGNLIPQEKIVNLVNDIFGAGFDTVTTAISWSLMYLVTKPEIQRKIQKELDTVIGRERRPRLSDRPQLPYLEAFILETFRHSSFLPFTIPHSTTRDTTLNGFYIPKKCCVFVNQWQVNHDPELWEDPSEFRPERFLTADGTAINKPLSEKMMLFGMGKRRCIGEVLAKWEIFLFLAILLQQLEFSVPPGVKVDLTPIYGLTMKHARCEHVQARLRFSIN
Nature of the data set: (§2) Inhibition of CYP1A2 in human liver microsomes at 10 uM after 20 mins in presence of NADPH by LC/MS/MS analysis relative to control. It is filed as ADME. Conditions: microsomes, 20 min, 10 µM.

The target in data set [9] is Cytochrome P450 2D6 (Homo sapiens, UniProt P10635). Nature of the data set: (§3) Inhibition of CYP2D6 in human liver microsomes at 10 uM after 20 mins in presence of NADPH by LC/MS/MS analysis relative to control. Conditions: microsomes, 20 min, 10 µM. It is filed as ADME.
Sequence of Cytochrome P450 2D6 (P10635 whole entry): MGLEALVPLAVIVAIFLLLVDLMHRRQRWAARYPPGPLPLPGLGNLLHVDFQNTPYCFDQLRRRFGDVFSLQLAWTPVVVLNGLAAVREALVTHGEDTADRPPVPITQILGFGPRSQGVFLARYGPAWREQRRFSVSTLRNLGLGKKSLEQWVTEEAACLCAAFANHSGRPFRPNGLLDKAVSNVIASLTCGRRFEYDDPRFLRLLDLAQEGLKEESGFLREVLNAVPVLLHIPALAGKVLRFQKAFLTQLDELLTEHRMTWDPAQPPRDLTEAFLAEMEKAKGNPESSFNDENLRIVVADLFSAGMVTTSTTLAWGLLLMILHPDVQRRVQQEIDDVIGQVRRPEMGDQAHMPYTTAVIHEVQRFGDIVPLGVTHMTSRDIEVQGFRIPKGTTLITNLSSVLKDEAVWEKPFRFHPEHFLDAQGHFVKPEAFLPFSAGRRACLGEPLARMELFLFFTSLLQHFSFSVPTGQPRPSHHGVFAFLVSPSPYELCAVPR
Data set [10] in a line: Metabolic stability of mouse liver microsomes assessed as parent compound remaining at 0.1 uM after 60 mins in presence of NADPH by LC/MS/MS analysis. It is filed as ADME, microsome. Conditions: read-out: Stability.
The target of data set [11] is CYP3A4 (Homo sapiens, UniProt P08684). The data set is described as §1. Format: ADME. Conditions: liver microsomes.
Sequence of CYP3A4 (P08684 whole entry): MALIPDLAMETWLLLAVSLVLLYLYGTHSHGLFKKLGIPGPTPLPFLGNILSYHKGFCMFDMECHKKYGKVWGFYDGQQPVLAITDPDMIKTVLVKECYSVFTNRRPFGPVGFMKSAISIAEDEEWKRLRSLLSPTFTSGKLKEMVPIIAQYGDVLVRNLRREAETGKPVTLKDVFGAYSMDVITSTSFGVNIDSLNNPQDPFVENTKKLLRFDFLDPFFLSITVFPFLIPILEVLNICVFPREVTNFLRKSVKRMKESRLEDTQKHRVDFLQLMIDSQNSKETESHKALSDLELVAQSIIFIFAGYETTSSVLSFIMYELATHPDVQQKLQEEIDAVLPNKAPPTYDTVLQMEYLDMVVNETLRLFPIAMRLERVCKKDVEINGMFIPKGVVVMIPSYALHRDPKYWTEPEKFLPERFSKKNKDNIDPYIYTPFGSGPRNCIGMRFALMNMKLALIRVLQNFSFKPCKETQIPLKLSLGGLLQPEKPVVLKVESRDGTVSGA
Data set [12] in a line: Metabolic stability of human liver microsomes assessed as parent compound remaining at 0.1 uM after 60 mins in presence of NADPH by LC/MS/MS analysis. It is filed as ADME, microsome. Conditions: read-out: Stability.
Data set [13] addresses T2, CYP1A2 (Homo sapiens, UniProt P05177).
T2 sequence (P05177 whole entry): T1 sequence (P05177 whole entry)
Described as §2. Format: ADME. Conditions: liver microsomes.

A short description of data set [14]: Metabolic stability of rat liver microsomes assessed as parent compound remaining at 0.1 uM after 60 mins in presence of NADPH by LC/MS/MS analysis. Conditions: read-out: Stability. Format: ADME, microsome.
Data set [15] is described as follows: Volume of distribution in C57/BL6 mouse at 3 mg/kg, iv. Format: ADME, organism-based. Conditions: in vivo, read-out: Vz.
The nature of data set [16]: Oral bioavailability in C57/BL6 mouse at 30 mg/kg. Format: ADME, organism-based. Conditions: in vivo.
Data set [17] can be described thus: Cmax in C57/BL6 mouse at 30 mg/kg, po. It is filed as ADME, organism-based. More on the design: dose 30 mg/kg, route oral. Conditions: in vivo.
A short description of data set [18]: Clearance in C57/BL6 mouse at 3 mg/kg, iv. Conditions: in vivo. It is filed as ADME, organism-based.
Data set [19] can be described thus: AUC (0 to 24 hrs) in C57/BL6 mouse at 30 mg/kg, po. Format: ADME, organism-based. The arrangement: time < 24 hr, dose 30 mg/kg, route oral. Conditions: in vivo.
The nature of data set [20]: Tmax in C57/BL6 mouse at 30 mg/kg, po. Format: ADME, organism-based. Conditions: in vivo.
Data set [21] can be described thus: Ratio of drug uptake in lung to plasma of C57/BL6 mouse at 3 mg/kg, iv or 30 mg/kg, po. It is filed as ADME, organism-based.
Data set [22] in a line: Half life in C57/BL6 mouse at 30 mg/kg, po. Format: ADME, organism-based. Conditions: in vivo.
Data set [23] has as its target CYP2D6 (Homo sapiens, UniProt P10635). The description is as §3. Format: ADME. Conditions: liver microsomes.
Data set [24] is described as follows: Half life in C57/BL6 mouse at 3 mg/kg, iv. It is filed as ADME, organism-based. Conditions: in vivo.

SMILES strings stand for the structures.

Sequence of Cytochrome P450 3A4 (P08684 whole entry): as above
Sequence of CYP2D6 (P10635 whole entry): as the sequence (P10635 whole entry) above

In the case of `O=C(Nc1c(Cl)cncc1Cl)c1ccc(OC(F)F)c(OCC2CC2)c1` [ROFLUMILAST], the values for the Activity in data set [1], in [2] and in data set [3] were 40%, 75% and 58%, respectively.
Take `Fc1cc(-c2nnn[nH]2)ccc1-c1ncc(-n2ccnc2)cc1Cl`: in data set [4], the IC50 is 0.027 µM. Moreover, the inhibition at 20 min, 10 µM in data set [5] came to 50%. Also, the “inhibition (INH)” value in [6], in data set [8] and in data set [9] was “Not Active” throughout. For the same molecule, the inhibition at 40 min, 10 µM in data set [7] is 42%.
As to `CCc1cc(-n2ccnc2C)ccc1-c1ccc(-c2nnn[nH]2)cc1`, in [4], the IC50 was 0.024 µM. The inhibition at 20 min, 10 µM in data set [5] is 48%; in data set [11] it was 18%; in data set [13] it was 13%. For the same molecule, the remaining at 1 h, 0.1 µM was determined as 87% in data set [10], 5% in [12] and 99% in data set [14]. Also, the inhibition at 40 min, 10 µM in data set [7] is 67%. The “inhibition (INH)” value in data set [9] is given as “Not Active”.
For `Cc1cc(-n2ccnc2)cnc1-c1ccc(-c2nnn[nH]2)cc1F`, the Vd in data set [15] is 2.8 L/kg. For the same molecule, in data set [4], the IC50 is 0.014 µM. In addition, the inhibition at 20 min, 10 µM is 60% in data set [5], 19% in data set [11], -15% in data set [13] and 12% in [23]. In data set [16], this molecule yielded a bioavailability of 49%. Besides, the results for the remaining at 1 h, 0.1 µM in data set [10], in [12] and in data set [14] were 42%, 100% and 53%, respectively. In [17], this molecule showed a Cmax of 2.56 µg/mL. In addition, the inhibition at 40 min, 10 µM in [7] was found to be 45%. The same molecule registered a clearance in data set [18] of 1.02 L/h/kg. Also, the AUC(0-t) at 24 h in data set [19] amounted to 14.2 µg·h/mL. Besides, in [20], the Tmax came out at 0.5 h. Further, in [21], the Kp was 0.62. Also, the half-life in data set [22] was 5.3 h; in data set [24], 1.9 h.

The values above are taken from ChEMBL document CHEMBL4257571, “Discovery of 5-(2-chloro-4'-(1H-imidazol-1-yl)-[1,1'-biphenyl]-4-yl)-1H-tetrazole as potent and orally efficacious S-nitrosoglutathione reductase (GSNOR) inhibitors for the potential treatment of COPD” (Bioorg Med Chem Lett, 2018).
